Reference: patent publication US11083798B2, “Conjugate including peptide molecule capable of self-assembly in cell organelle and pharmaceutical composition for preventing or treating cancer including conjugate” (UNIST (ULSAN NATIONAL INSTITUTE OF SCIENCE AND TECHNOLOGY), priority 2016, dated 2021)
pIC50: −log10 of the molar value.

Assays:
HeLa cells [1] = test: ROS generation within the cell with dihydroethidium (DHE); type: cell-based, human
Source text: The mitochondrial stress may eventually lead to the whole-cell stress. […] DHE dye may intercalate with nuclear DNA and oxidizes to ethidium in the presence of ROS, which may show red fluorescence.
(§1) TEM images of Mito-VV and Mito-FxFx were obtained by observation in the same manner as in Example 3.

[2] = test system: HeLa, MDA-MB-486, MCF10, PC3, SCC7, HEK293T, NIH-3T3; test: cell cytotoxicity, Alamar Blue assay, variety of cell lines; type: cell-based; settings: 24 hours, FIG. 33, read-out: IC50 (cell viability)
Method: After the confirmation of the intra-mitochondrial assembly of peptide amphiphile, the toxicity of Mito-peptides toward a variety of cells was analyzed, the cells including cancer cell lines such as HeLa (ATCC, cervical cancer), MDA-MB-486 (ATCC) (mammary cancer) MCF10 (breast cancer), PC3 (ATCC, prostate cancer), SCC7 (ATCC, skin cancer), HEK293T (ATCC), and NIH-3T3 (ATCC).
(§2) In order to analyze cell cytotoxicity, the cancer cells were incubated in an incubator including a DMEM medium (available from Gibco) containing 10% of FBS, 1% of penicillin/streptomycin (available from Life Technologies) at a temperature of 37° C. Cell viability thereof was measured 24 hours after cell incubation, by following the protocol of the manufacturer of Alamar Blue assay (available from Thermo Fisher Scientific).

HeLa cells [3] = settings: 24 hours, FIG. 32
[4] = self-assembled morphology and size by electron microscopy (TEM); type: physicochemical; settings: PBS (10 mM) and water
HeLa cells [5] = test: flow cytometric analysis (FACS) with annexin V/PI staining; type: cell-based, human; settings: 10 μM
Method: For the quantitative analysis of apoptosis, flow cytometric analysis (FACS) was conducted over time with FI-TC annexin V/PI staining assay by using FACSCalibur (available from BD Bioscience), following the protocol of the manufacturer.
In detail, HeLa cells treated with 10 μM of Mito-FF were incubated for 4 hours or 8 hours. Then, FACS analysis was performed thereon.

HeLa cells [6] = test: ROS generation within mitochondria with Mito SOX Red; type: cell-based, human; settings: 6 hours of incubation with HeLa cells
Source text: The mitochondrial dysfunction may result in excessive production of reactive oxygen species (ROS). To confirm the oxidative stress induced by Mito-FF, generation of ROS within mitochondria was monitored using Mito SOX Red.

[7] = critical aggregation concentration (CAC) by pyrene excitation method; type: physicochemical; settings: pyrene excitation spectrum, I344/I339
Method: In order to verify whether intracellular self-assembly of the Mito-FF according to the present disclosure can occur or not, the CAC of the Mito-FF was measured as follows.
Intensities of emission at 344 nanometers (nm) and 339 nm in a pyrene excitation spectrum differ according to whether pyrene molecules are present as unaggregated individual molecules or as aggregated molecules. The intensities at 344 nm and 339 nm in the excitation spectrum were measured, and the ratio of an intensity in the excitation spectrum at 344 nm to an intensity in the excitation spectrum at 339 nm was calculated. Based on the standard curve shown in FIG. 4, the CAC for Mito-FF was determined.

HeLa cells [8] = test: TEM image analysis of mitochondrial dysfunction in treated cells; type: cell-based, human; settings: 20 μM, 3 hours
Method: To visualize the mitochondrial dysfunction induced by Mito-FF, a TEM image analysis was conducted with HeLa cells treated with Mito-FF of a concentration of 20 μM for 3 hours in the same manner as in Example 3.

HeLa cells [9] = test: FITC annexin/PI staining assay, confocal microscopy; type: cell-based, human; settings: 10 μM, Annexin V positive, PI negative
Method: Mitochondria play a vital role in the initiation of an intrinsic apoptosis cascade. It was anticipated that a Mito-peptide localized in a mitochondrion may self-assemble, thereby causing stress in the mitochondrion and inducing apoptotic mechanisms. To confirm this prediction experimentally, FITC annexin/PI staining assay was performed.
For the FIIC annexin/PI staining assay, HeLa cells were incubated in an incubator including a DMEM medium (available from Gibco) containing 10% of FBS and 1% of penicillin/streptomycin (available from Life Technologies) at a temperature of 37° C. 10 μM of each peptide was incubated for 1, 4, 6, 8, or 10 hours. Following the protocol of the manufacturer, the cells were incubated for 15 minutes at room temperature in the presence of 100 μL of annexin-binding buffer solution, 5 μL of Alexa Fluor 488-conjugated annexin V (V13241 available from Life Technologies), and 1 μL of a 100 μg/mL PI working solution.

[10] = test system: HEK 293T normal cell lines; test: cell viability of normal cell line, Alamar Blue assay; type: cell-based; settings: 24 hours of treatment
Method: as §2
In order to confirm whether apoptosis occurs or not by treatment with Mito-peptides, the cell viability of HEK 293T normal cell lines treated with Mito-FF, Mito-FxFx, Mito-VV, or Mito-GG was measured in the same manner as described above.

[11] = liposomal leakage assay (calcein release)
Method: To confirm this expectation, a liposomal leakage assay was conducted.
The release of a self-quenching dye such as calcine from liposome is commonly used to test integrity of lipid bilayers. […] Different concentrations of Mito-FF were added to a vesicle-containing solution, and leakage of encapsulated calcein from the vesicle was monitored.

HeLa cells [12] = test: mitochondrial membrane potential depolarization with TMRM; type: cell-based, human; settings: HeLa cells incubated with TMRM and peptide
Source text: Under normal conditions, the inner membrane of mitochondria is in an electrochemically polarized state with a higher concentration of H^+ in the inner membrane space. The electrochemical gradient across the membrane causes H^+ to flow to the inner membrane of mitochondria and this process is coupled with production of adenosine triphosphate (ATP). The external materials which may uncouple this process cause the flow of H^+ to be independent of ATP production. This condition is referred as mitochondrial depolarization, which serves as a preliminary indication of mitochondrial dysfunction.
To examine the effect of Mito-FF on the mitochondrial membrane potential, HeLa cells were incubated with TMRM and Mito-FF. The fluorescence emission from the TMRM was monitored at times lapses of 1 hour, 3 hours, and 6 hours. Red fluorescence of TMRM appears when a mitochondrial membrane is completely polarized, whereas depolarization of a mitochondrial membrane causes disappearance of TMRM red fluorescence.
as §1

Compound: NC(=O)[C@H](CCCCNCCCCC[P+](c1ccccc1)(c1ccccc1)c1ccccc1)NC(=O)[C@H](CC1CCCCC1)NC(=O)[C@H](CC1CCCCC1)NC(=O)CCCc1ccc2ccc3cccc4ccc1c2c34 [Mito-FxFx]
- ROS generation within the cell (DHE) (HeLa cells [1]): ROS generation
- pIC50 [2]: 5.00

Compound: pyrene-FFKFxrFxr
- toxicity in HeLa cells (HeLa cells [3]): significant toxicity

Compound: CC(C)[C@H](NC(=O)CCCc1ccc2ccc3cccc4ccc1c2c34)C(=O)N[C@H](C(=O)N[C@@H](CCCCNCCCCC[P+](c1ccccc1)(c1ccccc1)c1ccccc1)C(N)=O)C(C)C [Mito-VV]
- ROS generation within the cell (DHE) (HeLa cells [1]): ROS generation
- pIC50 [2]: 5.00

Compound: NC(=O)[C@H](CCCCNCCCCC[P+](c1ccccc1)(c1ccccc1)c1ccccc1)NC(=O)[C@H](Cc1ccccc1)NC(=O)[C@H](Cc1ccccc1)NC(=O)CCCc1ccc2ccc3cccc4ccc1c2c34 [Mito-FF]
- average length of nanofibers [4]: 500 nm
- average width of individual fibers [4]: 10 nm
- time at which late apoptotic stage started (HeLa cells [5]): > 10 h
- total population of the cells that entered an early apoptotic stage (HeLa cells [5]; within 2 hours): about 81.2%
- ROS generation inside mitochondria (Mito SOX Red) (HeLa cells [6]): ROS was generated inside the mitochondria
- ROS generation within the cell (DHE) (HeLa cells [1]): significant ROS was generated
- critical aggregation concentration (CAC) [7]: 60 µM
- state of mitochondrion in TEM image (HeLa cells [8]): severely damaged
- time until cells entered an early apoptotic stage (HeLa cells [9]): ≤ 6 h
- toxicity against normal cells [10]: innocuous
- dye leakage at a concentration below the CAC ([11]; concentration below the CAC): did not induce any dye leakage
- leakage of calcein / dye release from liposome ([11]; within 24 hours): 100%
- time until red fluorescence of TMRM disappeared (membrane depolarization) (HeLa cells [12]): ≤ 6 h
